# Measurements reported in ChEMBL document CHEMBL1133489, “Synthesis of FF-MAS from lithocholic acid” (Bioorg Med Chem Lett, 2000).
# Organism: Mus musculus
# Test: Compound was evaluated for meiosis inducing effect on immature mouse oocytes; Positive
# Format: functional
structure (smiles),measurement,value
CC(C)=CCC[C@@H](C)[C@H]1CC=C2C3=C(CC[C@@]21C)[C@@]1(C)CC[C@H](O)C(C)(C)[C@@H]1CC3,Activity,Positive
